One compound from US10822309B2, “Crystalline form of Eluxadoline” (priority 2017, dated 2020) can be followed below.

The nature of this series: PXRD studies of capped and uncapped samples after storage in stability chambers (polymorphic stability). It is filed as physicochemical. As for the experimental part: Eluxadoline Form APO-I can be characterized by a PXRD diffractogram comprising, among other peaks, characteristic peaks, expressed in degrees 2θ (±0.2°), at 6.4°, 6.9° and 11.4°. Preferably, the PXRD diffractogram further comprises at least three peaks, expressed in degrees 2θ (±0.2°), selected from the group consisting of 8.7°, 9.9°, 12.7°, 14.8°, 15.8°, 17.5°, 18.9°, 19.8° and 23.8°. More preferably, the PXRD diffractogram further comprises peaks, expressed in degrees 2θ (±0.2°), at 8.7°, 9.9°, 12.7°, 14.8°, 15.8°, 17.5°, 18.9°, 19.8° and 23.8°. PXRD studies of capped and uncapped samples of Eluxadoline Form APO-I have shown that this crystal form is stable following storage in stability chambers maintained at 27° C./60% RH and 40° C./75% RH for at least 10 days.
PXRD diffractograms were recorded on a Bruker D8 Discover powder X-ray diffractometer (Bruker-AXS, Karlsruhe, Germany). The generator was a Micro-focus X-ray source (IMSTube: Cu tube with 1.54184 A) with a voltage of 50 kV and current of 1.00 mA, using a divergence slit of 0.3 mm and collimator of 0.3 mm. For each sample, one frame was collected using a still scan with a Pilatus 3R-100 kA detector at the distance of 154.72 mm from the sample. Raw data were evaluated using the program EVA (Bruker-AXS, Karlsruhe, Germany).

`COc1ccc(CN(C(=O)[C@@H](N)Cc2c(C)cc(C(N)=O)cc2C)[C@@H](C)c2nc(-c3ccccc3)c[nH]2)cc1C(=O)O` [Eluxadoline Form APO-I, 5-({[(2S)-2-amino-3-(4-carbamoyl-2,6-dimethylphenyl)propionyl]-[(1S)-1-(4-phenyl-1H-imidazol-2-yl)ethyl]amino}-methyl)-2-methoxybenzoic acid]: the “crystal form stable following storage (PXRD)” value (stability chamber 27° C./60% RH) is given as “at least 10 days”. For the same compound, the “crystal form stable / resists polymorph conversion following storage (PXRD)” value (stability chamber 40° C./75% RH) is “at least 10 days”.
